The source of these data is ChEMBL document CHEMBL1833830, “1-[2-(2-Benzoyl- and 2-benzylphenoxy)ethyl]uracils as potent anti-HIV-1 agents” (Bioorg Med Chem, 2011).

Each structure is given as a SMILES string. Calls of active or inactive are those of the source. The rule behind the calls is not given here. Bounds are passed on as bounds.

Series [1] deals with Human respirovirus 3. The series is described as follows: Antiviral activity against Parainfluenza 3 virus assessed as inhibition of viral replication. In kind it is functional, organism-based.
The test system of series [2] is Mammalian orthoreovirus 1. The series is described as follows: Antiviral activity against Reovirus 1 assessed as inhibition of viral replication. Format: functional, organism-based.
Series [3] concerns Sindbis virus. The series is described as follows: Antiviral activity against Sindbis virus assessed as inhibition of viral replication. Format: functional, organism-based.
Series [4] has as its system Vesicular stomatitis virus. The series is described as follows: Antiviral activity against Vesicular stomatitis virus assessed as inhibition of viral replication. In kind it is functional, organism-based.
Series [5] relates to Respiratory syncytial virus. Put plainly: Antiviral activity against Respiratory syncytial virus assessed as inhibition of viral replication. In kind it is functional, organism-based.
For series [6], the system named is Coxsackievirus B4. Put plainly: Antiviral activity against Coxsackievirus B4 assessed as inhibition of viral replication. In kind it is functional, organism-based.
The subject of series [7] is Feline coronavirus. Put plainly: Antiviral activity against Feline coronavirus assessed as inhibition of viral replication. In kind it is functional, organism-based.
Series [8] has as its system Yellow fever virus. The series is described as follows: Antiviral activity against Yellow fever virus assessed as inhibition of viral replication. In kind it is functional, organism-based.
Series [9] has as its system Dengue virus. Put plainly: Antiviral activity against Dengue virus assessed as inhibition of viral replication. In kind it is functional, organism-based.
The test system of series [10] is Rift Valley fever virus. The series is described as follows: Antiviral activity against Rift Valley fever virus assessed as inhibition of viral replication. In kind it is functional, organism-based.
In series [11] the test system is Punta Toro virus. The series is described as follows: Antiviral activity against Punta Toro virus assessed as inhibition of viral replication. Format: functional, organism-based.
Series [12] concerns West Nile virus. The series is described as follows: Antiviral activity against West Nile virus assessed as inhibition of viral replication. Format: functional, organism-based.
Series [13] is described as follows: Inhibition of DNA-dependent DNA polymerase activity of HIV1 reverse transcriptase p66/p66 homodimer using activated DNA and [alpha-32P]dATP after 30 mins by liquid scintillation counting. The arrangement: species or system Human immunodeficiency virus 1.
Series [14] concerns the target Human immunodeficiency virus type 1 reverse transcriptase (Human immunodeficiency virus 1, UniProt Q72547). The series is described as follows: Inhibition of RNA-dependent DNA polymerase activity of HIV1 reverse transcriptase p66/p51 heterodimer using [8-3H]dGTP as substrate after 30 mins by liquid scintillation counting.
Series [15] has as its system Human immunodeficiency virus 2. The series is described as follows: Antiviral activity against Human immunodeficiency virus type 2 ROD infected in human CEM cells assessed as inhibition of virus-induced giant cell formation after 4 days by microscopic analysis. In kind it is functional, organism-based. To be noted: ISOLATE ROD, CCRF-CEM.
The test system of series [16] is Human immunodeficiency virus 2. The series is described as follows: Antiviral activity against Human immunodeficiency virus type 2 ROD infected in human MT4 cells assessed as inhibition of virus-induced cytopathic effect after 4 days by MTT assay. Format: functional, organism-based. To be noted: ISOLATE ROD. A general note: Cytopathic effects are the visible damage that an infection or toxin causes in cultured cells.

Series [17] relates to Human immunodeficiency virus 1. Format: functional, organism-based. The settings on record: Human immunodeficiency virus 1, 3B, MT4, 96 h.
Series [18] in a line: Cytotoxicity against human MT4 cells after 4 days by MTT assay. In kind it is cell-based. For orientation: Tetrazolium assays rely on reduction of a dye to a coloured formazan, in cell work by metabolically active cells.
The subject of series [19] is Human alphaherpesvirus 1. Put plainly: Antiviral activity against HSV1 assessed as inhibition of viral replication. In kind it is functional, organism-based.
The subject of series [20] is Human alphaherpesvirus 2. Put plainly: Antiviral activity against HSV-2 assessed as inhibition of viral replication. Format: functional, organism-based.
Series [21] deals with Vaccinia virus. Put plainly: Antiviral activity against Vaccinia virus assessed as inhibition of viral replication. In kind it is functional, organism-based. The settings on record: Orthopoxvirus vaccinia.
The nature of series [22]: in vitro. To be noted: human, MT4 cells.
Series [23] can be described thus: in vitro. The settings on record: human, MT4 cells. The source holds these as a separate data set.
Series [24] has as its system Human immunodeficiency virus 1. The series is described as follows: microbe, parasite or virus in culture. To be noted: Human immunodeficiency virus 1, 3B, MT4, 96 h.

With `Cc1ccc(OCCn2ccc(=O)[nH]c2=O)c(C(=O)c2ccccc2)c1`, the result in series [1], in series [2], in series [3], in series [4], in series [5] and in series [6] was inactive. The outcome in series [7], in [8], in [9], in series [10], in series [11] and in [12] was inactive. Further, the outcome in series [15], in [16], in series [19], in series [20] and in series [21] was inactive. Further, the Ki (as a rule, the equilibrium dissociation constant of an inhibitor or competing ligand from its target) was 5600 nM in series [13] and 1700 nM in [14]. For the same compound, the 50% effective concentration (EC50) – broadly, the concentration at which the effect is half-maximal – in series [17] was above 357000 nM; in series [24] it was 310 nM. In addition, the CC50 (commonly the concentration at which the toxic effect on the cells reaches its halfway point) at 96 h in series [18] is above 357000 nM. Also, the selectivity ratio was above 1140 in series [22] and 1 in series [23].

Take `O=C(c1cc(Br)cc(Br)c1)c1cc(Cl)ccc1OCCn1ccc(=O)[nH]c1=O`: the result in series [1], in series [2], in series [3], in series [4], in series [5] and in series [6] was inactive. For the same compound, the outcome in series [7], in [8], in series [9], in [10], in [11] and in [12] was inactive. Also, the outcome in series [15], in series [16], in series [19], in series [20] and in [21] was inactive. Further, the Ki in series [13] stood at 2300 nM; in [14], 470 nM. For the same compound, the 50% effective concentration (EC50) in series [17] was above 237000 nM; in [24] it was 32 nM. The same compound returned a CC50 at 96 h in [18] above 236000 nM. In addition, the figures for the selectivity ratio in series [22] and in series [23] were above 7390 and 1, respectively.

For the compound `Cc1cccc(C(=O)c2cc(Cl)ccc2OCCn2ccc(=O)[nH]c2=O)c1`, the result in [1], in [2], in series [3], in series [4], in [5] and in series [6] was inactive. Besides, the outcome in [7], in series [8], in series [9], in [10], in [11] and in series [12] was inactive. Further, the outcome in series [15], in series [16], in series [19], in series [20] and in series [21] was inactive. Besides, the inhibition constant (Ki) worked out at 490 nM in series [13] and 210 nM in series [14]. Further, the half-maximal effective concentration (EC50) in series [17] is 52000 nM; in series [24] it was 52 nM. In [18], this compound yielded a 50% cytotoxic concentration (CC50) at 96 h above 325000 nM. The selectivity ratio in [22] was above 6250; in [23] it was above 6.

On to `O=C(c1ccccc1)c1cc(Br)ccc1OCCn1ccc(=O)[nH]c1=O`, for which the result in series [1], in series [2], in series [3], in series [4], in series [5] and in series [6] was inactive. The outcome in [7], in series [8], in [9], in [10], in series [11] and in series [12] was inactive. The result in [15], in series [16], in series [19], in series [20] and in [21] was inactive. The inhibition constant Ki in series [13] is 2000 nM; in series [14], 450 nM. Besides, the EC50 in [17] is above 301000 nM; in [24], 65 nM. Also, the CC50 at 96 h in series [18] was above 301000 nM. Further, the selectivity ratio was above 4630 in series [22] and 1 in [23].

On to `Cc1cc(C)cc(C(=O)c2cc(Cl)ccc2OCCn2c(C)cc(=O)[nH]c2=O)c1`, for which the result in series [1], in [2], in series [3], in series [4], in series [5] and in series [6] was inactive. The outcome in series [7], in [8], in series [9], in series [10], in series [11] and in [12] was inactive. Moreover, the outcome in series [15], in series [16], in series [19], in series [20] and in series [21] was inactive. Besides, the values for the inhibition constant (Ki) in series [13] and in series [14] were 730 nM and 1700 nM, respectively. In addition, the EC50 in series [17] was 4090 nM; in series [24], 20 nM. In addition, the CC50 at 96 h in [18] was above 303000 nM. The selectivity ratio in series [22] was above 15100; in [23] it was above 74.

As to `Cc1cc(C)cc(C(=O)c2cc(Cl)ccc2OCCn2cc(C)c(=O)[nH]c2=O)c1`, the result in series [1], in series [2], in [3], in series [4], in series [5] and in series [6] was inactive. Also, the result in series [7], in series [8], in series [9], in [10], in series [11] and in series [12] was inactive. In addition, the result in [15], in series [16], in [19], in series [20] and in series [21] was inactive. Further, the Ki in series [13] turned out to be 1200 nM; in series [14] it was 1100 nM. Also, the concentration for a half-maximal effect (EC50) in [17] was determined as 4090 nM; in series [24] it was 44 nM. For the same compound, the CC50 at 96 h in series [18] was above 303000 nM. The results for the selectivity ratio in [22] and in series [23] were above 6880 and above 74, respectively.

Take `O=C(c1ccccc1)c1cc(F)ccc1OCCn1ccc(=O)[nH]c1=O`: the outcome in series [1], in [2], in series [3], in series [4], in [5] and in series [6] was inactive. The result in series [7], in [8], in [9], in [10], in series [11] and in series [12] was inactive. Further, the outcome in series [15], in series [16], in [19], in series [20] and in series [21] was inactive. Further, the Ki in series [13] was found to be 2900 nM; in series [14], 2600 nM. The concentration for a half-maximal effect (EC50) in series [17] worked out at 171000 nM; in series [24], 510 nM. The CC50 at 96 h in series [18] is above 353000 nM. The selectivity ratio was above 694 in series [22] and above 2 in series [23].
